Like-named read-outs stand apart in the source and are kept apart here.
How the values were obtained:
[1] = system: duplex-form calf thymus DNA (CT-DNA); test: Thermal denaturation studies with calf thymus DNA; assay type: binding; conditions: [PBD]:[DNA] molar ratio 1:5, CT-DNA 100 μM, ligand 20 μM, pH 7.00
Method: Compounds were subjected to thermal denaturation studies with duplex-form calf thymus DNA (CT-DNA) using an adaptation of a reported procedure. Working solutions in aqueous buffer (10 mM NaH2PO41Na2HPO4, 1 mM Na2EDTA, pH 7.00±0.01) containing CT-DNA (100 μm in phosphate) and the PBD (20 μm) were prepared by addition of concentrated PBD solutions in DMSO to obtain a fixed [PBD]/[DNA] molar ratio of 1:5. The DNA-PBD solutions were incubated at 37° C. for 0, 18, and 36 h prior to analysis. Samples were monitored at 260 nm using a Beckman DU-7400 spectrophotometer fitted with high performance temperature controller, and heating was applied at 1° C. min^−1 in the 40-90° C. range. DNA helix→coil transition temperatures (Tm) were obtained from the maxima in the d(A260)/dT derivative plots. Results are given as the mean±standard deviation from three determinations and are corrected for the effects of DMSO co-solvent using a linear correction term. Drug-induced alterations in DNA melting behaviour are given by: ΔTm=Tm(DNA+PBD)−Tm (DNA alone), where the Tm value for the PBD-free CT-DNA is 69.0±0.01.
For a 1:5 molar ratio of [PBD]/[DNA], where CT-DNA concentration=100 μM and ligand concentration=20 μM in aqueous sodium phosphate buffer [10 mM sodium phosphate+1 mM EDTA, pH 7.00±0.01]. The ΔTm for PBD hybrids 5b, 5c, 5d, 5h, 5m and 5r at a [PBD]:[DNA] molar ratio of 1:5 increased to a value of 7.5° C., 9.3° C., 8.9° C., 8.0° C., 7.1° C., and 8.4° C. after 18 h incubation respectively.

[2] = system: ovarian cancer cell lines (A2780); test: In vitro cytotoxicity, SRB assay, ovarian cancer A2780; assay type: cell-based, human; conditions: Homo sapiens
Text: (§1) The C8-linked benzylidineanthracenone-PBD hybrids have been tested against eight human tumor cell lines derived from seven cancer types (breast, ovarian, colon, prostate, cervix, lung and oral cancer). For each compound, dose response curves for individual cell lines have been measured at a minimum of five concentrations at 10 fold dilutions. A protocol of 48 hrs continuous drug exposure has been used, and a sulforhodamine B (SRB) protein assay was used to estimate cell viability or growth. The results are expressed as percent of cell growth determined relative to that of untreated control cells. The GI50 values are the concentration for 50% cell growth inhibition (GI50) compared with the control has been calculated.

[3] = system: prostate cancer cell lines (PC3); test: In vitro cytotoxicity, SRB assay, prostate cancer PC-3; assay type: cell-based, human; conditions: Homo sapiens
Text: as §1

[4] = system: oral cancer cell lines (KB); test: In vitro cytotoxicity, SRB assay, oral cancer KB; assay type: cell-based, human; conditions: Homo sapiens
Text: as §1

[5] = system: cervix cancer cell lines (SiHa); test: In vitro cytotoxicity, SRB assay, cervix cancer SiHa; assay type: cell-based, human; conditions: Homo sapiens
Text: as §1

[6] = system: lung cancer cell lines (HoP62); test: In vitro cytotoxicity, SRB assay, lung cancer Hop62; assay type: cell-based, human; conditions: Homo sapiens, HOP-62
Text: as §1

[7] = system: lung cancer cell lines (A549); test: In vitro cytotoxicity, SRB assay, lung cancer A-549; assay type: cell-based, human; conditions: Homo sapiens
Text: as §1

[8] = system: breast cancer cell lines (MCF7); test: In vitro cytotoxicity, SRB assay, breast cancer MCF7; assay type: cell-based, human; conditions: Homo sapiens
Text: as §1

[9] = system: colon cancer cell lines (Colo205); test: In vitro cytotoxicity, SRB assay, colon cancer Colo205; assay type: cell-based, human; conditions: Homo sapiens, COLO 205
Text: as §1

[10] = Ovarian A2780, 48 hrs continuous drug exposure, SRB, read-out: GI50
[11] = ovarian cancer cell lines (A2780), exposure period of at least 48 hrs, read-out: GI50 (range for the group)
[12] = Prostate PC-3, 48 hrs continuous drug exposure, SRB, read-out: GI50
[13] = prostate cancer cell lines (PC3), exposure period of at least 48 hrs, read-out: GI50 (range for the group)
[14] = Oral KB, 48 hrs continuous drug exposure, SRB, read-out: GI50
[15] = oral cancer cell lines (KB), exposure period of at least 48 hrs, read-out: GI50 (range for the group)
[16] = Cervix SiHa, 48 hrs continuous drug exposure, SRB, read-out: GI50
[17] = cervix cancer cell lines (SiHa), exposure period of at least 48 hrs, read-out: GI50 (range for the group)
[18] = Lung Hop62, 48 hrs continuous drug exposure, SRB, read-out: GI50
[19] = lung cancer cell lines (HoP62), exposure period of at least 48 hrs, read-out: GI50 (range for the group)
[20] = A549, Lung A-549, 48 hrs continuous drug exposure, SRB, read-out: GI50
[21] = lung cancer cell lines (A549), exposure period of at least 48 hrs, read-out: GI50 (range for the group)
[22] = Breast MCF7, 48 hrs continuous drug exposure, SRB, read-out: GI50
[23] = breast cancer cell lines (MCF7), exposure period of at least 48 hrs, read-out: GI50 (range for the group)
[24] = Colon Colo205, 48 hrs continuous drug exposure, SRB, read-out: GI50
[25] = colon cancer cell lines (Colo205), exposure period of at least 48 hrs, read-out: GI50 (range for the group)

SMILES | ΔTm, drug-induced shift in DNA melting temperature ([1]; 0 h incubation at 37° C.) [°C] | ΔTm, drug-induced shift in DNA melting temperature ([1]; 18 h incubation at 37° C.) [°C] | GI50 [2, 10] [nM] | GI50 [2, 11] [nM] | GI50 [3, 12] [nM] | GI50 [3, 13] [nM] | GI50 [4, 14] [nM] | GI50 [4, 15] [nM] | GI50 [5, 16] [nM] | GI50 [5, 17] [nM] | GI50 [6, 18] [nM] | GI50 [6, 19] [nM] | GI50 [7, 20] [nM] | GI50 [7, 21] [nM] | GI50 [8, 22] [nM] | GI50 [8, 23] [nM] | GI50 [9, 24] [nM] | GI50 [9, 25] [nM]
COc1cc(C=C2c3ccccc3C(=O)c3ccccc32)ccc1O [2a, 4-hydroxy-3-methoxybenzylidineanthracenone, reference compound] | 0.4 | 0.8 |  |  |  |  |  |  |  |  |  |  |  |  |  |  |  | 
COc1cc(C=C2c3ccccc3C(=O)c3ccccc32)ccc1OCCCOc1cc2c(cc1OC)C(=O)N1CCC[C@H]1C=N2 [5b, 7-methoxy-8-(3-{2-methoxy-4-[(10-oxo-9,10-dihydro-9-anthracenyliden)methyl]phenoxy}propoxy)-(11aS)-1,2,3,11a-5H-pyrrolo[2,1-c][1,4]benzodiazepin-5-one] | 6.1 | 7.5 | 148 | 148 to 168 | 180 | 150 to 2200 | 190 | 180 to 2500 | 2200 | 2200 to 31000 | 190 | 170 to 260 | 1760 | 155 to 1940 | 140 | 90 to 180 | 110 | 110 to 140
COc1cc(C=C2c3ccccc3C(=O)c3ccccc32)ccc1OCCCCOc1cc2c(cc1OC)C(=O)N1CCC[C@H]1C=N2 [5c, 7-methoxy-8-(4-{2-methoxy-4-[(10-oxo-9,10-dihydro-9-anthracenyliden)methyl]phenoxy}butoxy)-(11aS)-1,2,3,11a-5H-pyrrolo[2,1-c][1,4]benzodiazepin-5-one] | 7.7 | 9.3 | 150 | 148 to 168 | 180 | 150 to 2200 | 200 | 180 to 2500 |  |  | 180 | 170 to 260 | 1800 | 155 to 1940 | 90 | 90 to 180 | 120 | 110 to 140
COc1cc(C=C2c3ccccc3C(=O)c3ccccc32)ccc1OCCCCCOc1cc2c(cc1OC)C(=O)N1CCC[C@H]1C=N2 [5d, 7-methoxy-8-(5-{2-methoxy-4-[(10-oxo-9,10-dihydro-9-anthracenyliden)methyl]phenoxy}pentoxy)-(11aS)-1,2,3,11a-5H-pyrrolo[2,1-c][1,4]benzodiazepin-5-one] | 7.4 | 8.9 | 150 | 148 to 168 | 150 | 150 to 2200 | 180 | 180 to 2500 | 2200 | 2200 to 31000 | 170 | 170 to 260 | 1940 | 155 to 1940 | 150 | 90 to 180 |  | 
COc1cc2c(cc1OCCCCOc1ccc(C=C3c4ccccc4C(=O)c4ccccc43)cc1)N=C[C@@H]1CCCN1C2=O [5h, 7-methoxy-8-(4-{4-[(10-oxo-9,10-dihydro-9-anthracenyliden)methyl]phenoxy}butoxy)-(11aS)-1,2,3,11a-5H-pyrrolo[2,1-c][1,4]benzodiazepin-5-one] | 6.6 | 8.0 | 168 | 148 to 168 | 2200 | 150 to 2200 | 2400 | 180 to 2500 | 2500 | 2200 to 31000 | 200 | 170 to 260 | 150 | 155 to 1940 | 160 | 90 to 180 | 110 | 110 to 140
COc1cc2c(cc1OCCCCOc1cccc(C=C3c4ccccc4C(=O)c4ccccc43)c1)N=C[C@@H]1CCCN1C2=O [5m, 7-methoxy-8-(4-{3-[(10-oxo-9,10-dihydro-9-anthracenyliden)methyl]phenoxy}butoxy)-(11aS)-1,2,3,11a-5H-pyrrolo[2,1-c][1,4]benzodiazepin-5-one] | 6.5 | 7.1 | 160 | 148 to 168 | 180 | 150 to 2200 | 2400 | 180 to 2500 | 2200 | 2200 to 31000 | 230 | 170 to 260 | 1820 | 155 to 1940 | 170 | 90 to 180 | 140 | 110 to 140
COc1ccc(C=C2c3ccccc3C(=O)c3ccccc32)cc1OCCCCOc1cc2c(cc1OC)C(=O)N1CCC[C@H]1C=N2 [5r, 7-methoxy-8-(4-{2-methoxy-5-[(10-oxo-9,10-dihydro-9-anthracenyliden)methyl]phenoxy}butoxy)-(11aS)-1,2,3,11a-5H-pyrrolo[2,1-c][1,4]benzodiazepin-5-one] | 6.3 | 8.4 | 166 | 148 to 168 | 2100 | 150 to 2200 | 2500 | 180 to 2500 | 31000 | 2200 to 31000 | 260 | 170 to 260 | 1900 | 155 to 1940 | 180 | 90 to 180 | 140 | 110 to 140

— US8318726B2, “Benzylidineanthracenone linked pyrrolobenzodiazepine hybrids useful as anticancer agents and process for the preparation thereof” (Council of Scientific & Industrial Research, priority 2010, dated 2012)
